Results taken from article PMC9319741, “A Novel ERK2 Degrader Z734 Induces Apoptosis of MCF–7 Cells via the HERC3/p53 Signaling Pathway” (Molecules, 2022).

Columns and labels:
ERK1 = biological target: T1, ERK1 (Homo sapiens, UniProt P27361); test: IMAP TR-FRET enzymatic kinase (cascade) assay; format: biochemical
T1 construct: gene MAPK3

ERK2 = biological target: T2, ERK2 (Homo sapiens, UniProt P28482); test: IMAP TR-FRET enzymatic kinase (cascade) assay; format: biochemical
T2 construct: gene MAPK1
T2 sequence (P28482 2-360): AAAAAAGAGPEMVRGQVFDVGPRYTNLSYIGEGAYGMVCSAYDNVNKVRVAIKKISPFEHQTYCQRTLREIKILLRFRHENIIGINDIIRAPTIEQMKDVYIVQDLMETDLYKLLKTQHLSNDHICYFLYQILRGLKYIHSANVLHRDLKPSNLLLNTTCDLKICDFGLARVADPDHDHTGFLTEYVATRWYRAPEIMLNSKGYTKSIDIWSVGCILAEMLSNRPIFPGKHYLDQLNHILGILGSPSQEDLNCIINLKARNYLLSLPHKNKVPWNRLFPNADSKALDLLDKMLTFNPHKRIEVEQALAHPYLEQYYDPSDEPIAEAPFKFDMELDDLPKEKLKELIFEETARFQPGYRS

T1 sequence (P27361 2-379): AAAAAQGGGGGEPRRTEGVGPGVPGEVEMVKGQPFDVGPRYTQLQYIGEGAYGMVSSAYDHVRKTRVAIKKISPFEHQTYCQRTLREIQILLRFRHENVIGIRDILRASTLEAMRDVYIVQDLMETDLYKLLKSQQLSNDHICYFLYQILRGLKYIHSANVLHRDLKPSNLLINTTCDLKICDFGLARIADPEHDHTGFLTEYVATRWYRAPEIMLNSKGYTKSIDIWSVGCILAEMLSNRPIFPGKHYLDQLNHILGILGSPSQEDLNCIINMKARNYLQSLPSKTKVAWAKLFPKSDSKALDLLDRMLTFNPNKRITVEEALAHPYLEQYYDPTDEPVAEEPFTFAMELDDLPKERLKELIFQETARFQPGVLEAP

IC50 (ERK1): 9 nM | IC50 (ERK2): 3 nM
SMILES: CC(=O)NC(CC(=O)N(c1ccccc1)c1nc2ccccc2s1)c1ccccc1 (centres unmarked) [Z734]
